Consider 29 compounds from US20070249670A1, “Glycogen Phosphorylase Inhibitor Compounds and Pharmaceutical Compositions Thereof” (SMITHKLINE BEECHAM CORPORATION, priority 2004, published 2007).

As a reminder, the IC50 is the midpoint of a concentration-inhibition curve. A higher IC50 goes with lower potency.

The experiment deals with T1, human liver glycogen phosphorylase a (HLGPa) (Homo sapiens, UniProt P06737).
T1 construct: creating a full-length cDNA fused at the 5′ end to codons for methionine-glycine-alanine-histidine; 6xHis tag (leader Met-Gly-Ala-His6-Gly-Gly) (N); made in house; host or cells: E. coli (bacterial expression plasmid pTXK1007LTev)
T1 sequence (P06737 2-847 limits assumed): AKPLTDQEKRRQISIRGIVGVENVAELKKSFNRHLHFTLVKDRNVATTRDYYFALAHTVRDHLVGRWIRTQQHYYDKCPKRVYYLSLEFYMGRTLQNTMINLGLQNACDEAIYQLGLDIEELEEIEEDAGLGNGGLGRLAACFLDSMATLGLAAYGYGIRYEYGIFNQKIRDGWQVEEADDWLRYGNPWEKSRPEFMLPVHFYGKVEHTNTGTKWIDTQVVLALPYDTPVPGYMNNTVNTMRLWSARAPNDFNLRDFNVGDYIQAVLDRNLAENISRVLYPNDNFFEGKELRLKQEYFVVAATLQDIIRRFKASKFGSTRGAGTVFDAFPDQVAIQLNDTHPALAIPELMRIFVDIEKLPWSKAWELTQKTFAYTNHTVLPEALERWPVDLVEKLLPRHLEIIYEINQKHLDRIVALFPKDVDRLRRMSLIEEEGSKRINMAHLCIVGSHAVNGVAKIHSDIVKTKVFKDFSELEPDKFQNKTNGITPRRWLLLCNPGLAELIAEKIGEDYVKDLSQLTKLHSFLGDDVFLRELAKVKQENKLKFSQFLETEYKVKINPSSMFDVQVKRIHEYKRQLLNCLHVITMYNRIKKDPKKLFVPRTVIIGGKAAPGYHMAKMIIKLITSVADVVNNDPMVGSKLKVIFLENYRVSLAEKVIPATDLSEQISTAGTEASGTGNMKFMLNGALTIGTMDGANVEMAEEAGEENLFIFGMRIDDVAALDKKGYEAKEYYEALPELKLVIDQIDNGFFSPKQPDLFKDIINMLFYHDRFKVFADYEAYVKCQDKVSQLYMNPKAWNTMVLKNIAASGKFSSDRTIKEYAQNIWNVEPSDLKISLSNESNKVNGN
Put plainly: Human liver glycogen phosphorylase a enzymatic activity assay (coupled, fluorescent resorufin readout, with and without 10 mM glucose). It counts as biochemical.

Setting [1] is: human liver glycogen phosphorylase a, table does not say whether with or without 10 mM glucose.
The mark [2] stands for this setting: human liver glycogen phosphorylase a enzymatic activity assay.

Take `O=C(Nc1sc(-c2ccccc2)cc1C(=O)O)Nc1c(Cl)cccc1Cl` [Example 382, 2-({[(2,6-dichlorophenyl)amino]carbonyl}amino)-5-phenyl-3-thiophenecarboxylic acid]: the midpoint of inhibition under setting [1], the IC50, lay at 1170 nM. On the same count and under the same terms, the figure for `COC(=O)[C@@H](NC(=O)c1cc(-c2ccccc2)sc1NC(=O)Nc1c(Cl)cccc1Cl)C1CCCCC1` [Example 383, methyl(2S)-cyclohexyl({[2-({[(2,6-dichlorophenyl)amino]carbonyl}amino)-5-phenyl-3-thienyl]carbonyl}amino)ethanoate] is 2370 nM; for `O=C(Nc1sc(-c2ccccc2)cc1C(=O)N[C@H](C(=O)O)C1CCCCC1)Nc1c(Cl)cccc1Cl` [Example 384, (2S)-cyclohexyl({[2-({[(2,6-dichlorophenyl)amino]carbonyl}amino)-5-phenyl-3-thienyl]carbonyl}amino)ethanoic acid] it is 230 nM; for `O=C(Nc1cc(-c2ccc(F)cc2)sc1C(=O)O)Nc1c(Cl)cccc1Cl` [Example 385, 3-({[(2,6-dichlorophenyl)amino]carbonyl}amino)-5-(4-fluorophenyl)-2-thiophenecarboxylic acid] it is 1140 nM. On the same count and under the same terms, the figure for `COC(=O)[C@@H](NC(=O)c1sc(-c2ccc(F)cc2)cc1NC(=O)Nc1c(Cl)cccc1Cl)C1CCCCC1` [Example 386, methyl(2S)-cyclohexyl({[3-({[(2,6-dichlorophenyl)amino]carbonyl}amino)-5-(4-fluorophenyl)-2-thienyl]carbonyl}amino)ethanoate] is 4300 nM; for `O=C(Nc1cc(-c2ccc(F)cc2)sc1C(=O)N[C@H](C(=O)O)C1CCCCC1)Nc1c(Cl)cccc1Cl` [Example 387, (2S)-cyclohexyl({[3-({[(2,6-dichlorophenyl)amino]carbonyl}amino)-5-(4-fluorophenyl)-2-thienyl]carbonyl}amino)ethanoic acid] it is 430 nM. Compound `Cc1cc(C(=O)O)c(NC(=O)Nc2c(Cl)cccc2Cl)s1` [Example 388, 2-({[(2,6-dichlorophenyl)amino]carbonyl}amino)-5-methyl-3-thiophenecarboxylic acid] had an IC50 under setting [1] of 19700 nM. This IC50 is about 46-fold higher than that of the compound before. As to `COC(=O)[C@@H](NC(=O)c1cc(C)sc1NC(=O)Nc1c(Cl)cccc1Cl)C1CCCCC1` [Example 389, methyl(2S)-cyclohexyl({[2-({[(2,6-dichlorophenyl)amino]carbonyl}amino)-5-methyl-3-thienyl]carbonyl}amino)ethanoate], under setting [1], the IC50 was determined as 15600 nM.

With `Cc1cc(C(=O)N[C@H](C(=O)O)C2CCCCC2)c(NC(=O)Nc2c(Cl)cccc2Cl)s1` [Example 390, (2S)-cyclohexyl({f[2-({[(2,6-dichlorophenyl)amino]carbonyl}amino)-5-methyl-3-thienyl]carbonyl}amino)ethanoic acid], it took 17500 nM to reach half-maximal inhibition under setting [1] (IC50). This IC50 and that of the compound before are within 1.5-fold of each other. Same read-out and setting: the figure for `O=C(Nc1sc(-c2ccccc2)cc1C(=O)O)Nc1c(Cl)cc(Cl)cc1Cl` [Example 391, 5-phenyl-2-({[(2,4,6-trichlorophenyl)amino]carbonyl}amino)-3-thiophenecarboxylic acid] is 6780 nM; for `COC(=O)[C@@H](NC(=O)c1cc(-c2ccccc2)sc1NC(=O)Nc1c(Cl)cc(Cl)cc1Cl)C1CCCCC1` [Example 392, methyl(2S)-cyclohexyl({[5-phenyl-2-({[(2,4,6-trichlorophenyl)amino]carbonyl}amino)-3-thienyl]carbonyl}amino)ethanoate] it is 1320 nM; for `CC(C)c1cc(C(=O)O)c(NC(=O)Nc2c(Cl)cccc2Cl)s1` [Example 394, 2-({[(2,6-dichlorophenyl)amino]carbonyl}amino)-5-(1-methylethyl)-3-thiophenecarboxylic acid] it is 19300 nM. `COC(=O)[C@@H](NC(=O)c1cc(C(C)C)sc1NC(=O)Nc1c(Cl)cccc1Cl)C1CCCCC1` [Example 395, methyl(2S)-cyclohexyl({[2-({[(2,6-dichlorophenyl)amino]carbonyl}amino)-5-(1-methylethyl)-3-thienyl]carbonyl}amino)ethanoate] displayed an IC50 under setting [2] of 4490 nM. Under setting [2], `O=C(Nc1sc(Cc2ccccc2)cc1C(=O)O)Nc1c(Cl)cccc1Cl` [Example 397, 2-({[(2,6-dichlorophenyl)amino]carbonyl}amino)-5-(phenylmethyl)-3-thiophenecarboxylic acid] yielded an IC50 of 14300 nM.

In turn, `COC(=O)[C@@H](NC(=O)c1cc(Cc2ccccc2)sc1NC(=O)Nc1c(Cl)cccc1Cl)C1CCCCC1` [Example 398, methyl(2S)-cyclohexyl({[2-({[(2,6-dichlorophenyl)amino]carbonyl}amino)-5-(phenylmethyl)-3-thienyl]carbonyl}amino)ethanoate] had an IC50 under setting [2] of 3060 nM. Still for that read-out and setting: the figure for `O=C(Nc1sc(Cc2ccccc2)cc1C(=O)N[C@H](C(=O)O)C1CCCCC1)Nc1c(Cl)cccc1Cl` [Example 399] is 6700 nM; for `O=C(Nc1cc(-c2ccncc2)sc1C(=O)O)Nc1c(Cl)cccc1Cl` [Example 400, 3-({[(2,6-dichlorophenyl)amino]carbonyl}amino)-5-(4-pyridinyl)-2-thiophenecarboxylic acid] it is 1830 nM. Still for that read-out and setting: the same measure for `COC(=O)[C@@H](NC(=O)c1sc(-c2ccncc2)cc1NC(=O)Nc1c(Cl)cccc1Cl)C1CCCCC1` [Example 401, methyl(2S)-cyclohexyl({[3-({[(2,6-dichlorophenyl)amino]carbonyl}amino)-5-(4-pyridinyl)-2-thienyl]carbonyl}amino)ethanoate]: 14900 nM. The same measure, in the same setting: the figure for `O=C(Nc1cc(-c2cccnc2)sc1C(=O)O)Nc1c(Cl)cccc1Cl` [Example 403, 3-({[(2,6-dichlorophenyl)amino]carbonyl}amino)-5-(3-pyridinyl)-2-thiophenecarboxylic acid] is 4220 nM; for `COC(=O)[C@@H](NC(=O)c1sc(-c2cccnc2)cc1NC(=O)Nc1c(Cl)cccc1Cl)C1CCCCC1` [Example 404, methyl(2S)-cyclohexyl({[3-({[(2,6-dichlorophenyl)amino]carbonyl}amino)-5-(3-pyridinyl)-2-thienyl]carbonyl}amino)ethanoate] it is 13200 nM; for `O=C(Nc1cc(-c2cccnc2)sc1C(=O)N[C@H](C(=O)O)C1CCCCC1)Nc1c(Cl)cccc1Cl` [Example 405] it is 230 nM. Regarding `N#Cc1ccc(-c2cc(NC(=O)Nc3c(Cl)cccc3Cl)c(C(=O)O)s2)cc1` [Example 406, 5-(4-cyanophenyl)-3-({[(2,6-dichlorophenyl)amino]carbonyl}amino)-2-thiophenecarboxylic acid], the IC50 under setting [2] was found to be 1110 nM. The same measure, in the same setting: the same measure for `N#Cc1ccc(-c2cc(NC(=O)Nc3c(Cl)cccc3Cl)c(C(=O)N[C@H](C(=O)O)C3CCCCC3)s2)cc1` [Example 407, (2S)-({[5-(4-cyanophenyl)-3-({[(2,6-dichlorophenyl)amino]carbonyl}amino)-2-thienyl]carbonyl}amino)(cyclohexyl)ethanoic acid]: 370 nM. Same read-out and setting: the figure for `COc1ccc(-c2cc(NC(=O)Nc3c(Cl)cccc3Cl)c(C(=O)O)s2)cc1` [Example 408, 3-({[(2,6-dichlorophenyl)amino]carbonyl}amino)-5-[4-(methyloxy)phenyl]-2-thiophenecarboxylic acid] is 1150 nM; for `COc1ccc(-c2cc(NC(=O)Nc3c(Cl)cccc3Cl)c(C(=O)N[C@H](C(=O)O)C3CCCCC3)s2)cc1` [Example 409, (2S)-cyclohexyl[({3-({[(2,6-dichlorophenyl)amino]carbonyl}amino)-5-[4-(methyloxy)phenyl]-2-thienyl}carbonyl)amino]ethanoic acid] it is 93 nM; for `O=C(Nc1cc(-c2ccccc2)sc1C(=O)O)Nc1c(Cl)cccc1Cl` [Example 410, 3-({[(2,6-dichlorophenyl)amino]carbonyl}amino)-5-phenyl-2-thiophenecarboxylic acid] it is 890 nM. Consider `O=C(Nc1cc(-c2ccccc2)sc1C(=O)N[C@H](C(=O)O)C1CCCCC1)Nc1c(Cl)cccc1Cl` [Example 411, (2S)-cyclohexyl({[3-({[(2,6-dichlorophenyl)amino]carbonyl}amino)-5-phenyl-2-thienyl]carbonyl}amino)ethanoic acid], for which, under setting [2], the half-inhibitory concentration (IC50) was found to be 120 nM. Same read-out and setting: the same measure for `COc1ccc(-c2cc(C(=O)O)c(NC(=O)Nc3c(Cl)cccc3Cl)s2)cc1` [Example 412, 2-({[(2,6-dichlorophenyl)amino]carbonyl}amino)-5-[4-(methyloxy)phenyl]-3-thiophenecarboxylic acid]: 1040 nM. Turning to `O=C(Nc1sc(Br)cc1C(=O)O)Nc1c(Cl)cccc1Cl` [Example 413, 5-bromo-2-({[(2,6-dichlorophenyl)amino]carbonyl}amino)-3-thiophenecarboxylic acid], under setting [2], the IC50 came out at 10600 nM.
